How the values were obtained:
[1] = Drug concentration in cynomolgus monkey plasma at 1 mg/kg, po after 8 hrs; assay type: ADME, organism-based, Macaca fascicularis
[2] = Cmax in cynomolgus monkey at 1 mg/kg, po; assay type: ADME, organism-based, Macaca fascicularis; set-up: dose 1 mg/kg, route po; settings: in vivo
[3] = AUC(0 to infinity) in cynomolgus monkey at 1 mg/kg, po; assay type: ADME, organism-based, Macaca fascicularis; set-up: time infinity, dose 1 mg/kg, route po; settings: in vivo
[4] = molecular target: T1, Chemerin-like receptor 1 (Homo sapiens) (UniProt Q99788); settings: CAL1
T1 sequence (whole entry): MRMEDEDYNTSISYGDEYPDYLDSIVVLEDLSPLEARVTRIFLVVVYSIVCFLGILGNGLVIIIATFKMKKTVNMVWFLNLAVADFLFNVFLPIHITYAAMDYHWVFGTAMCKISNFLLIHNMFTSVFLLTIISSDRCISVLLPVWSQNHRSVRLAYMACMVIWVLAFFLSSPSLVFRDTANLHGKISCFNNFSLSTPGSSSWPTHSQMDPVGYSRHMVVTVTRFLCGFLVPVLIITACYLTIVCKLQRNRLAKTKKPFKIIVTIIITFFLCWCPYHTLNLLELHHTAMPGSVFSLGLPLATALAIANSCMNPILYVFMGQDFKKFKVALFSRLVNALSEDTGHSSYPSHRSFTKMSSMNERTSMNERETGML

[5] = MRT in cynomolgus monkey at 0.3 to 1 mg/kg, po; assay type: ADME, organism-based, Macaca fascicularis; settings: in vivo, dose 0.3-1 mg/kg
[6] = Cmax in cynomolgus monkey at 0.3 to 1 mg/kg, po; assay type: ADME, organism-based, Macaca fascicularis; set-up: route po; settings: in vivo, dose 0.3-1 mg/kg
[7] = Half life in cynomolgus monkey at 0.3 to 1 mg/kg, po; assay type: ADME, organism-based, Macaca fascicularis; settings: in vivo, dose 0.3-1 mg/kg
[8] = AUC(0 to infinity) in cynomolgus monkey at 0.3 to 1 mg/kg, po; assay type: ADME, organism-based, Macaca fascicularis; set-up: route po; settings: in vivo, dose 0.3-1 mg/kg
[9] = Tmax in cynomolgus monkey at 0.3 to 1 mg/kg, po; assay type: ADME, organism-based, Macaca fascicularis; settings: in vivo, dose 0.3-1 mg/kg
[10] = Drug concentration in cynomolgus monkey plasma at 0.3 mg/kg, po after 8 hrs; assay type: ADME, organism-based, Macaca fascicularis
[11] = MRT in cynomolgus monkey at 0.3 mg/kg, po; assay type: ADME, organism-based, Macaca fascicularis; settings: in vivo
[12] = Cmax in cynomolgus monkey at 0.3 mg/kg, po; assay type: ADME, organism-based, Macaca fascicularis; set-up: dose 0.3 mg/kg, route po; settings: in vivo
[13] = AUC(0 to infinity) in cynomolgus monkey at 0.3 mg/kg, po; assay type: ADME, organism-based, Macaca fascicularis; set-up: time infinity, dose 0.3 mg/kg, route po; settings: in vivo
[14] = Tmax in cynomolgus monkey at 0.3 mg/kg, po; assay type: ADME, organism-based, Macaca fascicularis; settings: in vivo
[15] = Half life in cynomolgus monkey at 0.3 mg/kg, po; assay type: ADME, organism-based, Macaca fascicularis; settings: in vivo
[16] = Half life in cynomolgus monkey at 1 mg/kg, po; assay type: ADME, organism-based, Macaca fascicularis; settings: in vivo
[17] = MRT in cynomolgus monkey at 1 mg/kg, po; assay type: ADME, organism-based, Macaca fascicularis; settings: in vivo
[18] = Tmax in cynomolgus monkey at 1 mg/kg, po; assay type: ADME, organism-based, Macaca fascicularis; settings: in vivo
Chemerin-like receptor 1 = molecular target: T2, Chemerin-like receptor 1 (Homo sapiens, UniProt Q99788); experiment: Inhibition of human ChemR23 expressed in CAL-1 cells assessed as reduction in chemerin-induced calcium signaling; assay type: functional, cell-based, CAL1
T2 sequence (Q99788 whole entry): T1 sequence (whole entry)

## CCS(=O)(=O)NC(=O)c1nc(N(CC2CC2)[C@H](C)c2ccc(-c3cc(Cl)ccc3-c3nc(=O)o[nH]3)cc2)sc1C
[1]
  concentration at 8 h: 14 ng/mL
[2]
  Cmax: 716 ng/mL
[3]
  AUC(0-inf): 2170 ng·h/mL

## Cc1ccc(-c2nc(=O)o[nH]2)c(-c2ccc([C@@H](C)N(CC3CC3)c3nc(C(=O)NS(=O)(=O)C4CC4)c(-c4cccnc4)s3)cc2)c1
[4]
  IC80: 39 nM

## COCCc1sc(N(CC2CC2)[C@H](C)c2ccc(-c3cc(C)ccc3-c3nc(=O)o[nH]3)cc2)nc1C(=O)NS(=O)(=O)C1CC1
[4]
  IC80: 33 nM
[5]
  MRT: 4.2 h
[6]
  Cmax: 3530 ng/mL
[7]
  half-life: 2.6 h
[1]
  concentration at 8 h: 274 ng/mL
[8]
  AUC(0-inf): 12800 ng·h/mL
[9]
  Tmax: 2.7 h

## CNC(=O)c1ccc(Cl)cc1-c1ccc([C@@H](C)N(CC2CC2)c2nc(C(=O)NS(=O)(=O)C3CC3)c(C3CC3)s2)cc1
[4]
  IC80: 9 nM
[10]
  concentration at 8 h: 453 ng/mL
[11]
  MRT: 6.4 h
[12]
  Cmax: 897 ng/mL
[13]
  AUC(0-inf): 8720 ng·h/mL
[14]
  Tmax: 4 h
[15]
  half-life: 3.6 h

## Cc1ccc(-c2nc(=O)o[nH]2)c(-c2ccc([C@@H](C)N(CC3CC3)c3nc(C(=O)NS(=O)(=O)C4CC4)c(-c4ccoc4)s3)cc2)c1
[4]
  IC80: > 330 nM

## CONC(=O)c1ccc(C)cc1-c1ccc([C@@H](C)N(CC2CC2)c2nc(C(=O)NS(=O)(=O)C3CC3)c(C3CC3)s2)cc1
[4]
  IC80: 38 nM
[1]
  concentration at 8 h: 1010 ng/mL
[2]
  Cmax: 3480 ng/mL
[16]
  half-life: 2.9 h
[17]
  MRT: 5.9 h
[3]
  AUC(0-inf): 24000 ng·h/mL
[18]
  Tmax: 3.3 h

## CCCc1sc(N(CC2CC2)[C@H](C)c2ccc(-c3cc(C)ccc3-c3nc(=O)o[nH]3)cc2)nc1C(=O)NS(=O)(=O)C1CC1
[4]
  IC80: 25 nM

## CCc1sc(N(CC2CC2)[C@H](C)c2ccc(-c3cc(C)ccc3-c3nc(=O)o[nH]3)cc2)nc1C(=O)NS(=O)(=O)C1CC1
[4]
  IC80: 63 nM
[5]
  MRT: 2.9 h
[6]
  Cmax: 5970 ng/mL
[7]
  half-life: 3 h
[1]
  concentration at 8 h: 85.7 ng/mL
[8]
  AUC(0-inf): 10300 ng·h/mL
[9]
  Tmax: 1.7 h

## Cc1ccc(-c2nc(=O)o[nH]2)c(-c2ccc([C@@H](C)N(CC3CC3)c3nc(C(=O)NS(=O)(=O)C4CC4)c(CC(C)C)s3)cc2)c1
[4]
  IC80: 42 nM
[5]
  MRT: 4.9 h
[6]
  Cmax: 4250 ng/mL
[7]
  half-life: 2.3 h
[1]
  concentration at 8 h: 772 ng/mL
[8]
  AUC(0-inf): 21900 ng·h/mL
[9]
  Tmax: 2.7 h

## Cc1ccc(-c2nc(=O)o[nH]2)c(-c2ccc([C@@H](C)N(CC3CC3)c3nc(C(=O)NS(=O)(=O)C4CC4)c(-c4ccccc4)s3)cc2)c1
[4]
  IC80: > 330 nM

## Cc1ccc(-c2nc(=O)o[nH]2)c(-c2ccc([C@@H](C)N(CC3CC3)c3nc(C(=O)NS(=O)(=O)C4CC4)c(C4CCC4)s3)cc2)c1
[4]
  IC80: 130 nM
[5]
  MRT: 5.7 h
[6]
  Cmax: 7910 ng/mL
[7]
  half-life: 2.8 h
[1]
  concentration at 8 h: 2600 ng/mL
[8]
  AUC(0-inf): 55800 ng·h/mL
[9]
  Tmax: 2.7 h

## Cc1sc(N(CC2CC2)[C@H](C)c2ccc(-c3cc(Cl)ccc3-c3nc(=O)o[nH]3)cc2)nc1C(=O)NS(=O)(=O)C1CC1
[1]
  concentration at 8 h: 18 ng/mL
[2]
  Cmax: 1210 ng/mL
[3]
  AUC(0-inf): 3740 ng·h/mL

## Cc1ccc(-c2nc(=O)o[nH]2)c(-c2ccc([C@@H](C)N(CC3CC3)c3nc(C(=O)NS(=O)(=O)C4CC4)c(C4CCOC4)s3)cc2)c1 (stereo not given in full)
[4]
  IC80: 12 nM

## CCONC(=O)c1ccc(Cl)cc1-c1ccc([C@@H](C)N(CC2CC2)c2nc(C(=O)NS(=O)(=O)C3CC3)c(C3CC3)s2)cc1
[10]
  concentration at 8 h: 87.7 ng/mL
[11]
  MRT: 5.3 h
[12]
  Cmax: 296 ng/mL
[13]
  AUC(0-inf): 2060 ng·h/mL
[14]
  Tmax: 4 h
[15]
  half-life: 2.6 h

## Cc1sc(N(CC2CC2)[C@H](C)c2ccc(-c3cc(Cl)ccc3-c3nc(=O)o[nH]3)cc2)nc1C(=O)O
[1]
  concentration at 8 h: 7.9 ng/mL
[2]
  Cmax: 646 ng/mL
[3]
  AUC(0-inf): 2210 ng·h/mL

## CCNC(=O)CCC(=O)N1Cc2ccccc2-c2nnn(CCOCCOCCOCCOCCOCCOCCNC(=O)c3ccc(Cl)cc3-c3ccc([C@@H](C)N(CC4CC4)c4nc(C(=O)NS(=O)(=O)C5CC5)c(C5CC5)s4)cc3)c2-c2ccccc21
Chemerin-like receptor 1
  IC50: 9.1 nM

## Cc1ccc(-c2nc(=O)o[nH]2)c(-c2ccc([C@@H](C)N(CC3CC3)c3nc(C(=O)NS(=O)(=O)C4CC4)c(C)s3)cc2)c1
[4]
  IC80: 53 nM
[5]
  MRT: 4.2 h
[6]
  Cmax: 3180 ng/mL
[7]
  half-life: 2.1 h
[1]
  concentration at 8 h: 233 ng/mL
[8]
  AUC(0-inf): 12500 ng·h/mL
[9]
  Tmax: 3.3 h

— ChEMBL document CHEMBL5154705, “Discovery and mechanistic study of thiazole-4-acylsulfonamide derivatives as potent and orally active ChemR23 inhibitors with a long-acting effect in cynomolgus monkeys” (Bioorg Med Chem, 2022)
